Target: T1, Glycogen phosphorylase, liver form (Homo sapiens, UniProt P06737)
T1 sequence (P06737 whole entry): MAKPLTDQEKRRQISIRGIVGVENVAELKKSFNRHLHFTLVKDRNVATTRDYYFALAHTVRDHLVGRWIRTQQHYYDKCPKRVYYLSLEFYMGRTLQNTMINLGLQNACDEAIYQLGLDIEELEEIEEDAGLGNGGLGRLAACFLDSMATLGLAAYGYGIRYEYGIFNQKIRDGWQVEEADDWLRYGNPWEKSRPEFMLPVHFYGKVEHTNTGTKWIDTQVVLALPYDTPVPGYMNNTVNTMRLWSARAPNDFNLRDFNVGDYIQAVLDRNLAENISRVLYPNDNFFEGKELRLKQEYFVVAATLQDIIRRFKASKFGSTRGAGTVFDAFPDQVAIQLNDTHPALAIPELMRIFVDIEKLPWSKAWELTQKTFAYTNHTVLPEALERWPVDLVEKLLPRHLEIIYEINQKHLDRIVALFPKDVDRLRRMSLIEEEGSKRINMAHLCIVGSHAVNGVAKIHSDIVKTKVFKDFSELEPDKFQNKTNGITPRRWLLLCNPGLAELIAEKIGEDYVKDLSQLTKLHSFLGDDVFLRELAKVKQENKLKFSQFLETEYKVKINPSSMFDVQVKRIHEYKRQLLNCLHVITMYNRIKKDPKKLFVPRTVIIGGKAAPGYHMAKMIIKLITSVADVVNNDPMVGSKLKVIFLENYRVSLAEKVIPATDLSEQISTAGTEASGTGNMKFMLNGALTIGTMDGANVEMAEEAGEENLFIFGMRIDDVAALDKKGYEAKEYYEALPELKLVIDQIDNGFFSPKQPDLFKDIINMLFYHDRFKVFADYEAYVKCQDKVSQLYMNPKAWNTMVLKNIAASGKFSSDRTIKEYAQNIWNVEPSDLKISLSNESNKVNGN
Assay: Glycogen Phosphorylase Activity Assay
Settings: pH 6.8; 22 °C
Experimental: The activity of recombinant human liver GPa in the forward direction was measured by monitoring the production of NADPH. Enzyme activity was assayed at pH 6.8 in phosphate buffer containing beta-NADP, alpha -glucose 1,6-bisphosphate, glucose-6-phophate dehydrogenase, phosphoglucomutase, glycogen, and glucose. […] The reaction was started by adding hLGPa solution (beta-glycerophosphate and cystein, pH 6.8). The reaction took place at room temperature, and the conversion of oxidized beta-NADP to reduced beta-NADPH was measured at 340 nm for 2 h. The hLGPa inhibition IC50 values were calculated using the logistic regression method and SAS software.

SMILES | IC50 [nM]
O=C(Nc1ccc(C(O)CO)c(F)c1)c1cc2cc(Cl)ccc2[nH]1 (stereo not drawn) [5-chloroindolecarboxamide, 9g] | 340
O=C(Nc1ccc(C(O)CO)cc1Cl)c1cc2cc(Cl)ccc2[nH]1 (stereo not drawn) [5-chloroindolecarboxamide, 9c] | 1100
O=C(Nc1ccc(C(O)CO)cc1F)c1cc2cc(Cl)ccc2[nH]1 (stereo not drawn) [5-chloroindolecarboxamide, 9b] | 420
